{
  "source": "ChEMBL document CHEMBL2074335",
  "about": "“Cloning and functional characterization of the multidrug resistance-associated protein (MRP1/ABCC1) from the cynomolgus monkey” (Mol Cancer Ther, 2003)",
  "data": [
    {"molecular_target": "Multidrug resistance-associated protein 1 (Homo sapiens, UniProt P33527)", "sequence (P33527 whole entry)": "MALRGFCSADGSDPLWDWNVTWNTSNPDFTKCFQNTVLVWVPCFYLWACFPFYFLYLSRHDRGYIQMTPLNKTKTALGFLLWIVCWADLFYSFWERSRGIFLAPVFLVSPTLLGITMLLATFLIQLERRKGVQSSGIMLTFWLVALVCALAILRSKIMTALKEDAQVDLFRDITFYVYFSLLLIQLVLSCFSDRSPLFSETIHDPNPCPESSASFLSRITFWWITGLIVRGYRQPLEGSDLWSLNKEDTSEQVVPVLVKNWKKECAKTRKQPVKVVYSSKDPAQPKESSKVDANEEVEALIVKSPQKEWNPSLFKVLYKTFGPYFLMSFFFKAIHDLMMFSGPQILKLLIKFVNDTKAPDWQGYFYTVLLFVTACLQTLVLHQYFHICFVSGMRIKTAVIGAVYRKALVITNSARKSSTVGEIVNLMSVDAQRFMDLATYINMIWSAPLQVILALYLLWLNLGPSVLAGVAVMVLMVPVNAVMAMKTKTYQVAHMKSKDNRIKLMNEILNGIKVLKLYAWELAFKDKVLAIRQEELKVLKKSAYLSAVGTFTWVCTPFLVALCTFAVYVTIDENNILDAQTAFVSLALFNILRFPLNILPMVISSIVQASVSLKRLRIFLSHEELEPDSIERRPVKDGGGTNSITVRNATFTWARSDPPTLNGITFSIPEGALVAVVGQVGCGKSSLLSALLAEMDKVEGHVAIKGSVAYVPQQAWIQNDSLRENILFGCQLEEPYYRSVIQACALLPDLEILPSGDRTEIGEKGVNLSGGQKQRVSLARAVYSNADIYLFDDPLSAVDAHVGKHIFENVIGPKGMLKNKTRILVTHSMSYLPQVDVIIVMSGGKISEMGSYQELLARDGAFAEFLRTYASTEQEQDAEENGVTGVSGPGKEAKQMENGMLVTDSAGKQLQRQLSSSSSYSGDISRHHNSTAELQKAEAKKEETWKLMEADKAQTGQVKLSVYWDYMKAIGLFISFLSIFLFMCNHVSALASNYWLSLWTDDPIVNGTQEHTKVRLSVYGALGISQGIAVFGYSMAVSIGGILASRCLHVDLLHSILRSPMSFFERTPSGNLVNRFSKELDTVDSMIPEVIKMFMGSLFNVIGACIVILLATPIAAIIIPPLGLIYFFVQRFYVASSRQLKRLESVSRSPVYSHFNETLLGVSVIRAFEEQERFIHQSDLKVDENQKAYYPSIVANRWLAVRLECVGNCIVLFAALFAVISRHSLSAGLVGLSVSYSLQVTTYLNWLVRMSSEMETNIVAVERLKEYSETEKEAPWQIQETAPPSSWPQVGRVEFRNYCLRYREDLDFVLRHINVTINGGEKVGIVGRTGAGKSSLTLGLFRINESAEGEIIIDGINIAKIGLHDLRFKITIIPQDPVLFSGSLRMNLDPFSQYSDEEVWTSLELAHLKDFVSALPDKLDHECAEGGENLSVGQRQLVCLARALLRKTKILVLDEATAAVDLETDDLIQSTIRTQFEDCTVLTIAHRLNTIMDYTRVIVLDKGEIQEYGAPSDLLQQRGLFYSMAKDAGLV", "experiment": "TP_TRANSPORTER: drug resistance in MRP1-expressing PEAKSTABEL cells", "assay_type": "functional, cell-based", "conditions": "peakstable", "values": [
      {"smiles": "COc1cc(NC(=O)Cc2cccc(-n3c(=O)c4c(C)onc4c4c(Cl)cccc43)c2)cc(OC)c1OC", "Activity": "inhibitor []"},
      {"smiles": "COc1cccc2c1C(=O)c1c(O)c3c(c(O)c1C2=O)C[C@@](O)(C(=O)CO)C[C@@H]3O[C@H]1C[C@H](N)[C@H](O)[C@H](C)O1", "note": "[DOXORUBICIN]", "Activity": "substrate []"},
      {"smiles": "COc1cccc2c1C(=O)c1c(O)c3c(c(O)c1C2=O)C[C@@](O)(C(=O)CO)C[C@@H]3O[C@H]1C[C@H](N)[C@@H](O)[C@H](C)O1", "note": "[EPIRUBICIN]", "Activity": "substrate []"},
      {"smiles": "COc1cc([C@@H]2c3cc4c(cc3[C@@H](O[C@@H]3O[C@@H]5CO[C@@H](C)O[C@H]5[C@H](O)[C@H]3O)[C@H]3COC(=O)[C@H]23)OCO4)cc(OC)c1O", "note": "[ETOPOSIDE]", "Activity": "substrate []"},
      {"smiles": "CC[C@]1(O)C[C@H]2CN(CCc3c([nH]c4ccccc34)[C@@](C(=O)OC)(c3cc4c(cc3OC)N(C=O)[C@H]3[C@@](O)(C(=O)OC)[C@H](OC(C)=O)[C@]5(CC)C=CCN6CC[C@]43[C@@H]65)C2)C1", "note": "[VINCRISTINE]", "Activity": "substrate []"}
    ]}
  ]
}
